Assay results reported in the NIST ThermoML archive (doi:10.1021/je060271a).
Numbers after ± are expanded uncertainties.

Conditions: Liquid, Vibrating tube method

CCCCCCC(=O)OCC(COC(=O)CCCCCC)(COC(=O)CCCCCC)COC(=O)CCCCCC [pentaerythritol tetraheptanoate]
Conditions	mass density [kg/m3]
303.14 K, 15632 kPa	980.3 ± 1.2
303.14 K, 15661 kPa	980.3 ± 1.2
303.14 K, 15697 kPa	980.2 ± 1.2
303.14 K, 15727 kPa	980.3 ± 1.2
303.14 K, 15793 kPa	980.4 ± 1.2
303.14 K, 15884 kPa	980.5 ± 1.2
303.14 K, 15938 kPa	980.5 ± 1.2
303.14 K, 16023 kPa	980.5 ± 1.2
303.14 K, 16056 kPa	980.5 ± 1.2
303.14 K, 16112 kPa	980.6 ± 1.2
303.14 K, 16138 kPa	980.6 ± 1.2
303.14 K, 16199 kPa	980.7 ± 1.2
303.14 K, 16259 kPa	980.6 ± 1.2
303.14 K, 16286 kPa	980.6 ± 1.2
303.14 K, 16377 kPa	980.7 ± 1.2
303.14 K, 16405 kPa	980.8 ± 1.2
303.14 K, 16470 kPa	980.7 ± 1.2
303.14 K, 16655 kPa	981 ± 1.2
303.14 K, 16744 kPa	980.9 ± 1.2
303.14 K, 16780 kPa	980.9 ± 1.2
303.14 K, 16840 kPa	981 ± 1.2
303.14 K, 16876 kPa	981 ± 1.2
303.14 K, 17172 kPa	981.2 ± 1.2
303.14 K, 17203 kPa	981.2 ± 1.2
303.14 K, 17235 kPa	981.3 ± 1.2
303.14 K, 17267 kPa	981.3 ± 1.2
303.14 K, 17439 kPa	981.4 ± 1.2
303.14 K, 17478 kPa	981.3 ± 1.2
303.14 K, 17511 kPa	981.3 ± 1.2
303.14 K, 17543 kPa	981.3 ± 1.2
303.14 K, 17576 kPa	981.4 ± 1.2
303.14 K, 17615 kPa	981.3 ± 1.2
303.14 K, 17648 kPa	981.5 ± 1.2
303.14 K, 17688 kPa	981.4 ± 1.2
303.14 K, 17722 kPa	981.5 ± 1.2
303.14 K, 18010 kPa	981.6 ± 1.2
303.14 K, 18086 kPa	981.7 ± 1.2
303.14 K, 18423 kPa	981.9 ± 1.2
303.14 K, 18547 kPa	981.9 ± 1.2
303.14 K, 18582 kPa	981.9 ± 1.2
303.14 K, 18643 kPa	982 ± 1.2
303.14 K, 18679 kPa	981.9 ± 1.2
303.14 K, 18709 kPa	982 ± 1.2
303.14 K, 18745 kPa	982.1 ± 1.2
303.14 K, 18776 kPa	982 ± 1.2
303.14 K, 18806 kPa	982 ± 1.2
303.14 K, 18836 kPa	982.2 ± 1.2
303.14 K, 18874 kPa	982.1 ± 1.2
303.14 K, 18904 kPa	982.1 ± 1.2
303.14 K, 19140 kPa	982.3 ± 1.2
303.14 K, 19172 kPa	982.2 ± 1.2
303.14 K, 19205 kPa	982.4 ± 1.2
303.14 K, 19237 kPa	982.3 ± 1.2
303.14 K, 19276 kPa	982.4 ± 1.2
303.14 K, 19309 kPa	982.5 ± 1.2
303.14 K, 19518 kPa	982.4 ± 1.2
303.14 K, 19558 kPa	982.6 ± 1.2
303.14 K, 19592 kPa	982.5 ± 1.2
303.14 K, 19625 kPa	982.6 ± 1.2
303.14 K, 19666 kPa	982.5 ± 1.2
303.14 K, 19700 kPa	982.5 ± 1.2
303.14 K, 19734 kPa	982.6 ± 1.2
303.14 K, 19808 kPa	982.7 ± 1.2
303.14 K, 19842 kPa	982.6 ± 1.2
303.14 K, 19884 kPa	982.6 ± 1.2
303.14 K, 20108 kPa	982.9 ± 1.2
303.14 K, 20178 kPa	982.8 ± 1.2
303.14 K, 20221 kPa	982.9 ± 1.2
303.14 K, 20257 kPa	982.9 ± 1.2
303.14 K, 20293 kPa	982.9 ± 1.2
303.14 K, 20850 kPa	983.3 ± 1.2
303.14 K, 20889 kPa	983.2 ± 1.2
303.14 K, 21395 kPa	983.7 ± 1.2
303.14 K, 21485 kPa	983.6 ± 1.2
303.14 K, 21938 kPa	983.8 ± 1.2
303.14 K, 21981 kPa	983.8 ± 1.2
303.14 K, 22061 kPa	983.9 ± 1.2
303.14 K, 22488 kPa	984.1 ± 1.2
303.14 K, 22529 kPa	984.1 ± 1.2
303.14 K, 22605 kPa	984.2 ± 1.2
303.14 K, 22942 kPa	984.4 ± 1.2
303.14 K, 22983 kPa	984.4 ± 1.2
303.14 K, 23655 kPa	984.8 ± 1.2
303.14 K, 23688 kPa	984.8 ± 1.2
303.14 K, 23722 kPa	984.7 ± 1.2
303.14 K, 23763 kPa	984.8 ± 1.2
303.14 K, 24089 kPa	985 ± 1.2
303.14 K, 24131 kPa	985.1 ± 1.2
303.14 K, 24166 kPa	985.1 ± 1.2
303.14 K, 24356 kPa	985.1 ± 1.2
303.14 K, 28039 kPa	987.2 ± 1.2
303.14 K, 29427 kPa	988 ± 1.2
303.15 K, 11258 kPa	977.6 ± 1.2
303.15 K, 11434 kPa	977.8 ± 1.2
303.15 K, 11462 kPa	977.7 ± 1.2
303.15 K, 11546 kPa	977.9 ± 1.2
303.15 K, 11738 kPa	978 ± 1.2
303.15 K, 13121 kPa	978.8 ± 1.2
303.15 K, 13570 kPa	979 ± 1.2
303.15 K, 13874 kPa	979.2 ± 1.2
303.15 K, 13902 kPa	979.2 ± 1.2
303.15 K, 13922 kPa	979.2 ± 1.2
303.15 K, 13972 kPa	979.4 ± 1.2
303.15 K, 14222 kPa	979.5 ± 1.2
303.15 K, 14324 kPa	979.5 ± 1.2
303.15 K, 14456 kPa	979.6 ± 1.2
303.15 K, 14482 kPa	979.7 ± 1.2
303.15 K, 14511 kPa	979.6 ± 1.2
303.15 K, 14536 kPa	979.7 ± 1.2
303.15 K, 14567 kPa	979.7 ± 1.2
303.15 K, 14592 kPa	979.6 ± 1.2
